The record followed here is PubChem BioAssay AID256 (DTP/NCI, 2004).

Several values for one entry are separate records, joined by “and”; a condition that tells them apart may be missing. Equal values may be shown once. Inconclusive results and toxic doses are left out. Non-standard residues stand in square brackets, D forms with d. Residues, ends and D or L forms follow the SMILES beside them. ξ: configuration not given here. *: point of attachment. Hexanoyl = CCCCCC(=O)*; ξP = O=C(O)C1CCCN1; Ava = NCCCCC(=O)O

The assay relates to CD2F1 mice, L1210 leukemia ip, survival T/C. The experiment in a line: NCI In Vivo Anticancer Drug Screen. Data for tumor model L1210 Leukemia (intraperitoneal) in CD2F1 (CDF1) mice. To be noted: higher = longer survival. A digest of the protocol:
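Ratio T/C, where T is the treated-group value and C the vehicle-dosed control value, from mice implanted with a transplantable tumor.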

Setting [1] is: endpoint: mean survival time, dose: 100.0 mg/kg/injection, schedule: Q04DX003 (ip), vehicle: saline with Tween-80.
Setting [2] is: endpoint: mean survival time, dose: 200.0 mg/kg/injection, schedule: Q04DX003 (ip), vehicle: saline with Tween-80.
[3] abbreviates: endpoint: mean survival time, dose: 400.0 mg/kg/injection, schedule: Q04DX003 (ip), vehicle: saline with Tween-80.
Setting [4] is: endpoint: mean survival time, dose: 100.0 mg/kg/injection, schedule: Q01DX009 (ip), vehicle: saline with Tween-80.
The mark [5] stands for this setting: endpoint: mean survival time, dose: 6.25 mg/kg/injection, schedule: Q01DX009 (ip), vehicle: saline with Tween-80.
[6] abbreviates: endpoint: mean survival time, dose: 12.5 mg/kg/injection, schedule: Q01DX009 (ip), vehicle: saline with Tween-80.
The mark [7] stands for this setting: endpoint: mean survival time, dose: 25.0 mg/kg/injection, schedule: Q01DX009 (ip), vehicle: saline with Tween-80.
The mark [8] stands for this setting: endpoint: mean survival time, dose: 100.0 mg/kg/injection, schedule: Q01DX001 (ip), vehicle: saline with Tween-80.
The mark [9] stands for this setting: endpoint: mean survival time, dose: 200.0 mg/kg/injection, schedule: Q01DX001 (ip), vehicle: saline with Tween-80.
Setting [10] is: endpoint: mean survival time, dose: 400.0 mg/kg/injection, schedule: Q01DX001 (ip), vehicle: saline with Tween-80.

For `CCOC(=O)/C=C/C(C(=O)OCC)C(=O)OCC`, the T/C reads like this: under setting [1], 103 % of control; under setting [2], 97 % of control; under setting [3], 101 % of control.
On to `COC(=O)CNC(=O)C(F)(F)F`, for which the T/C by setting is: (endpoint: mean survival time, dose: 100.0 mg/kg/injection, schedule: Q01DX001 (ip), vehicle: saline) 104 % of control; under setting [1], 103 % of control; (endpoint: mean survival time, dose: 200.0 mg/kg/injection, schedule: Q01DX001 (ip), vehicle: saline) 112 % of control; under setting [2], 101 % of control; (endpoint: mean survival time, dose: 400.0 mg/kg/injection, schedule: Q01DX001 (ip), vehicle: saline) 104 % of control; under setting [3], 103 % of control.
For the compound `COC(=O)C1C2CC3c4[nH]c5cc(OC)c(Br)cc5c4CCN3CC2CC(OC(=O)c2cc(OC)c(OC)c(OC)c2)C1OC` (stereo unspecified), the T/C by setting is: (endpoint: mean survival time, dose: 75.0 mg/kg/injection, schedule: Q01DX001 (ip), vehicle: saline) 92 % of control; (endpoint: mean survival time, dose: 150.0 mg/kg/injection, schedule: Q01DX001 (ip), vehicle: saline) 103 % of control; (endpoint: mean survival time, dose: 300.0 mg/kg/injection, schedule: Q01DX001 (ip), vehicle: saline) 105 % of control.
For the compound `CC(=O)Nc1cccc(N(CCOS(C)(=O)=O)CCOS(C)(=O)=O)c1`, where the note is “endpoint: mean survival time, dose: 0.5 mg/kg/injection, schedule: Q01DX009 (ip), vehicle: saline”, the T/C is 122 % of control.
Regarding `CCC(C)OC(=O)Nc1ccccc1` (stereo unspecified), the T/C is 96 % of control under setting [4]; 94 % of control under setting [1]; 98 % of control (endpoint: mean survival time, dose: 200.0 mg/kg/injection, schedule: Q01DX009 (ip), vehicle: saline with Tween-80); 94 % of control under setting [2]; 98 % of control (endpoint: mean survival time, dose: 400.0 mg/kg/injection, schedule: Q01DX009 (ip), vehicle: saline with Tween-80); 94 % of control under setting [3].
For the compound `O=S(=O)(CCl)OCCCl`, the T/C is, setting by setting: under setting [5], 101 % of control; under setting [6], 115 % of control and 117 % of control; under setting [7], 120 % of control; (endpoint: mean survival time, dose: 50.0 mg/kg/injection, schedule: Q01DX009 (ip), vehicle: saline with Tween-80) 193 % of control; under setting [4], 86 % of control; (endpoint: median survival time, dose: 6.25 mg/kg/injection, schedule: Q01DX009 (ip), vehicle: saline with Tween-80) 101 % of control and 108 % of control. In addition, the T/C is 100 % of control and 104 % of control (endpoint: median survival time, dose: 12.5 mg/kg/injection, schedule: Q01DX009 (ip), vehicle: saline with Tween-80); 120 % of control (endpoint: median survival time, dose: 50.0 mg/kg/injection, schedule: Q01DX009 (ip), vehicle: saline with Tween-80); 173 % of control (endpoint: median survival time, dose: 100.0 mg/kg/injection, schedule: Q01DX009 (ip), vehicle: saline with Tween-80).
Consider `CCCCOS(=O)OCCCC`, for which the T/C was 106 % of control under setting [8], 102 % of control under setting [9] and 97 % of control under setting [10].
Turning to `CCCCCC(=O)NCC(=O)N1CCCC1C(=O)NCCCCC(=O)OC` (stereo unspecified) (Hexanoyl-Gly-[ξP]-[Ava]-OMe), the T/C reads like this: (endpoint: mean survival time, dose: 100.0 mg/kg/injection, schedule: Q04DX003 (ip), vehicle: saline) 98 % of control; (endpoint: mean survival time, dose: 200.0 mg/kg/injection, schedule: Q04DX003 (ip), vehicle: saline) 107 % of control; (endpoint: mean survival time, dose: 400.0 mg/kg/injection, schedule: Q04DX003 (ip), vehicle: saline) 103 % of control.
As for `Cc1ccc(S(=O)(=O)OC(c2ccccc2)C(F)(F)F)cc1` (stereo unspecified), the T/C is, setting by setting: under setting [8], 100 % of control; under setting [9], 103 % of control; under setting [10], 94 % of control.
For `O/N=C(\c1ccccc1)C1C(/C(=N/O)c2ccccc2)C1c1ccccc1` (stereo unspecified), the T/C (endpoint: mean survival time, dose: 50.0 mg/kg/injection, schedule: Q04DX002 (ip), vehicle: saline with Tween-80) is 90 % of control and the T/C (endpoint: mean survival time, dose: 100.0 mg/kg/injection, schedule: Q04DX002 (ip), vehicle: saline with Tween-80) was 87 % of control.
For the compound `Cn1c(=O)[nH]c2c(nc(-c3ccc(Cl)cc3)n2C)c1=O`, the T/C by setting is: (endpoint: mean survival time, dose: 12.5 mg/kg/injection, schedule: Q01DX005 (ip), vehicle: other) 91 % of control; (endpoint: mean survival time, dose: 25.0 mg/kg/injection, schedule: Q01DX005 (ip), vehicle: other) 100 % of control; (endpoint: mean survival time, dose: 50.0 mg/kg/injection, schedule: Q01DX005 (ip), vehicle: other) 95 % of control; (endpoint: mean survival time, dose: 100.0 mg/kg/injection, schedule: Q01DX005 (ip), vehicle: other) 95 % of control; (endpoint: mean survival time, dose: 200.0 mg/kg/injection, schedule: Q01DX005 (ip), vehicle: other) 100 % of control.
With `O=C(NCCCCCCNC(=O)Nc1cccc(Cl)c1)Nc1cccc(Cl)c1`, the T/C by setting is: (endpoint: mean survival time, dose: 50.0 mg/kg/injection, schedule: Q01DX009 (ip), vehicle: Klucel (hydroxypropylcellulose) (HPC)) 94 % of control; (endpoint: mean survival time, dose: 100.0 mg/kg/injection, schedule: Q01DX009 (ip), vehicle: Klucel (hydroxypropylcellulose) (HPC)) 91 % of control; (endpoint: mean survival time, dose: 200.0 mg/kg/injection, schedule: Q01DX009 (ip), vehicle: Klucel (hydroxypropylcellulose) (HPC)) 88 % of control.
`NC(=O)OCC(O)C(O)C(N)C(=O)NC(C(=O)O)C1OC(n2ccc(=O)[nH]c2=O)C(O)C1O` (stereo unspecified): the T/C by setting is: (endpoint: mean survival time, dose: 12.5 mg/kg/injection, schedule: Q01DX005 (ip), vehicle: water) 96 % of control; (endpoint: mean survival time, dose: 25.0 mg/kg/injection, schedule: Q01DX005 (ip), vehicle: water) 103 % of control; (endpoint: mean survival time, dose: 50.0 mg/kg/injection, schedule: Q01DX005 (ip), vehicle: water) 98 % of control; (endpoint: mean survival time, dose: 100.0 mg/kg/injection, schedule: Q01DX005 (ip), vehicle: water) 101 % of control; (endpoint: mean survival time, dose: 200.0 mg/kg/injection, schedule: Q01DX005 (ip), vehicle: water) 94 % of control.
For the compound `O/N=C/c1ccccc1O.O/N=C/c1ccccc1O.[Cu]`, the T/C is 98 % of control and 103 % of control (endpoint: mean survival time, dose: 1.56 mg/kg/injection, schedule: Q01DX009 (ip), vehicle: saline with Tween-80); 102 % of control and 106 % of control (endpoint: mean survival time, dose: 3.12 mg/kg/injection, schedule: Q01DX009 (ip), vehicle: saline with Tween-80); 93 % of control and 101 % of control under setting [5]; 100 % of control and 108 % of control under setting [6]; 114 % of control and 100 % of control under setting [7].
For the compound `CCOC(=O)c1c2cccccc-2c(C(=O)OCC)c1N`, the T/C was 95 % of control under setting [1], 109 % of control under setting [2] and 92 % of control under setting [3].
In the case of `NC(CSC1(c2ccc(Cl)cc2)c2ccccc2-c2ccccc21)C(=O)O` (stereo unspecified), the T/C runs as follows: (endpoint: mean survival time, dose: 25.0 mg/kg/injection, schedule: Q01DX009 (ip), vehicle: saline) 100 % of control; (endpoint: mean survival time, dose: 50.0 mg/kg/injection, schedule: Q01DX009 (ip), vehicle: saline) 96 % of control; (endpoint: mean survival time, dose: 100.0 mg/kg/injection, schedule: Q01DX009 (ip), vehicle: saline) 96 % of control.
Turning to `CCC(O)C[As](=O)(O)c1ccccc1Cl` (stereo unspecified), the T/C (endpoint: mean survival time, dose: 6.25 mg/kg/injection, schedule: Q04DX003 (ip), vehicle: saline with Tween-80) is 107 % of control; the T/C (endpoint: mean survival time, dose: 12.5 mg/kg/injection, schedule: Q04DX003 (ip), vehicle: saline with Tween-80) was 98 % of control; the T/C (endpoint: mean survival time, dose: 25.0 mg/kg/injection, schedule: Q04DX003 (ip), vehicle: saline with Tween-80) was 104 % of control.
